Source: patent US20200096789A1, “Optical Aid” (priority 2017, published 2020)

Experiments:
Assay type in all cases: cell-based
[1] = tested on: U251 GBM cell line; experiment: selenite treatment in conjunction with SEPHS2 KO (growth); details: 12 uM selenite; growth normalized to SEPHS2 KO cells
Method: FIGS. 2A-D provide evidence that SEPHS2 plays a detoxifying role in U251 GBM cell line. (A) Knockdown of either SEPHS2 or SEPSECS can block selenoprotein expression. (B) However, only SEPHS2 KO has significant toxicity. (C) Model for ‘pushing’ toxicity in which if SEPHS2 plays a detoxifying role, its KO should synergize with increased selenited input. (D) Synergy is indeed seen with 12 uM selenite treatment in conjunction with SEPHS2 KO. Growth is normalized to the already lower growth rate of the SEPHS2 KO cells, thus the bars in asterisks indicate (statistically significant) synergy.
We had classified SEPHS2 as a putative detoxifier as its substrate, selenide, is the most toxic form of selenium^12. The notion of SEPHS2 as a detoxifier has not previously been explored, and SEPHS2 is simply known for its enzymatic role (which cannot be replaced by its isoform, SEPHS1^13) as an intermediate step in producing selenocysteine for selenocysteinyl-tRNA production. The selenocysteine producing pathway is a simple and linear pathway starting from dietary […]—or […] or other inorganic forms which can be converted to selenite, selenite being the most common form^14,15. Selenite is imported and converted through in an unclear manner to form selenide, which is then metabolized by SEPHS2 to form selenophosphate, accompanied by ATP hydrolysis. […]

[2] = tested on: U251 cells; experiment: CRISPR/Cas9 screen of candidate selenium transporters: toxicity of 12 μM selenite; details: both guides against SLC7A11, U251 cells
Method: We compared the cells that are sensitive to SEPHS2 KO vs those that are not sensitive to identify key drivers of selenide production. We examined these lines for susceptibility to high, toxic doses of selenite as it is an abundant and bioavailable form of selenium. We observed a strong correlation between susceptibility to high-dose selenite and to SEPHS2 KO (FIG. 4A). […] Two guides per candidate transporter were knocked out in U251 cells and effects on the toxicity of 12 μM selenite were examined.

[3] = target: T1, SLC7A11 (Homo sapiens, UniProt Q9UPY5); experiment: total intracellular selenium levels after selenite supplementation; details: knockout of SLC7A11
T1 construct: endogenous in cells
T1 sequence (Q9UPY5 1-501): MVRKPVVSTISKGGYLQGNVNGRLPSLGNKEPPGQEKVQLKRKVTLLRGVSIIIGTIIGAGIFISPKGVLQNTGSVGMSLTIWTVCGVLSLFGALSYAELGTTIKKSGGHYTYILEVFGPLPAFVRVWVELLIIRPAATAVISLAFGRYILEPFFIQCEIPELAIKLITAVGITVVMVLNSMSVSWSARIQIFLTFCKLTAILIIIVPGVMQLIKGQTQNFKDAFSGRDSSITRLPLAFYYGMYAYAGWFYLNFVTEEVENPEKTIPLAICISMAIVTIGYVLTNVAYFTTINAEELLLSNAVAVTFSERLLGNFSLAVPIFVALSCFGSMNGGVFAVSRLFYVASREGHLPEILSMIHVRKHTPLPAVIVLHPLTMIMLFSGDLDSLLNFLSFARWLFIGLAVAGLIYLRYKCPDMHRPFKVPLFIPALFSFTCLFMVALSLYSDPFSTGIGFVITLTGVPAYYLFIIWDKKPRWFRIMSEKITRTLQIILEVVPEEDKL
T1 sequence (P08195 1-529 partner): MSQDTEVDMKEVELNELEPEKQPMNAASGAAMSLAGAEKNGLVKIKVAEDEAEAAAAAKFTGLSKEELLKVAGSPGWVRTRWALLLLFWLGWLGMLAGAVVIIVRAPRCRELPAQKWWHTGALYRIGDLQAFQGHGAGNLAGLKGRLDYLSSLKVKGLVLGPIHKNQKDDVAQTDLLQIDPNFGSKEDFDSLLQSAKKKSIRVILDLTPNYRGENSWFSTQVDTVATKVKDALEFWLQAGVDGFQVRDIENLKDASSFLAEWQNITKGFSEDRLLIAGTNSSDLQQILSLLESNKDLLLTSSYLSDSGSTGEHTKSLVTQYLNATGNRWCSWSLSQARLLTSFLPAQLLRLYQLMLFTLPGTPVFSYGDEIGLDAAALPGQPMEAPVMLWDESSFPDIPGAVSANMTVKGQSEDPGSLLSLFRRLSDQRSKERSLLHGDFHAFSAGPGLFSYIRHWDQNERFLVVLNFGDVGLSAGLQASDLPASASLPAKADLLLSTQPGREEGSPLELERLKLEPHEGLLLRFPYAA
Text: SLC7A11 was 5.5-fold enriched in SEPHS2-sensitive cell lines (FIG. 4C).

[4] = tested on: GPX4 and SEPHS2; experiment: selenoprotein expression after selenite supplementation; details: supplementation with selenite to media

SMILES: O=[Se](O)O [selenite]
- growth with selenite in conjunction with SEPHS2 KO [1]: Synergy
- toxicity of high-dose selenite after knockout of SLC7A11 [2]: complete rescue
- total intracellular selenium due to supplemented selenite [3]: prevented any increase
- expression of selenoproteins GPX4 and SEPHS2 [4]: increased expression
